Reference: patent US9505758B2 (priority 2013, dated 2016)

Target: T1, influenza A virus (IAV) PA-Nter fragment (amino acids 1-209) (Influenza A virus, UniProt P31343)
T1 construct: PA-Nter fragment (amino acids 1-209); made in house
Assay: FRET endonuclease activity assay
Type: biochemical
Conditions: calculated from initial reaction velocities (v0); 0.5 μM PA-Nter, 1.6 μM RNA substrate

Compared with `Cc1cnc2c(=O)c(C(=O)O)cn(Cc3ccccc3-c3ccccc3)c2c1`, `O=C(O)c1cn(Cc2ccccc2-c2ccccc2)c2cc(Br)cnc2c1=O` [1-(Biphenyl-2-ylmethyl)-7-bromo-4-oxo-1,4-dihydro-1,5-naphthyridine-3-carboxylic acid] is 2.6-fold higher in IC50: 570 nM for the first, 1500 nM for the second.

Compared with `O=C(O)c1cn(CC2(c3ccccc3)CCCC2)c2cccnc2c1=O`, `O=C(O)c1cn(CC2(c3ccccc3)CCCC2)c2nccnc2c1=O` is 16-fold higher in IC50: 600 nM for the first, 9700 nM for the second.

Compared with `O=C(O)c1cn(Cc2ccccc2-c2ccccc2)c2cccnc2c1=O`, `O=C(O)c1cn(Cc2ccccc2-c2ccc(Cl)cc2)c2cccnc2c1=O` is 1.8-fold lower in IC50: 760 nM for the first, 430 nM for the second.

For `O=C(O)c1cn(Cc2ccccc2-c2ccccc2)c2nccnc2c1=O`, the IC50 was 7800 nM.
